Earlier results, collected in PMC3292467, “Comparison between ^68Ga-bombesin (^68Ga-BZH3) and the cRGD tetramer ^68Ga-RGD4 studies in an experimental nude rat model with a neuroendocrine pancreatic tumor cell line” (EJNMMI Research, 2011).

Legend:
Conditions in all cases: background statement; no reference given; cited from earlier work
BB1 (Neuromedin B) = system: BB1 (Neuromedin B)
Description: (§1) Objectives Receptor scintigraphy gains more interest for diagnosis and treatment of tumors, in particular for neuroendocrine tumors (NET). We used a pan-Bombesin analog, the peptide DOTA-PEG2-[D-tyr^6, β-Ala^11, Thi^13, Nle^14] BN(6-14) amide (BZH3). BZH3 binds to at least three receptor subtypes: the BB1 (Neuromedin B), BB2 (Gastrin-releasing peptide, GRP), and BB3. Imaging of ανβ3 integrin expression playing an important role in angiogenesis and metastasis was accomplished with a ^68Ga-RGD tetramer. […] We have reported ^68Ga-labeled bombesin may be helpful for diagnostic reasons in a subgroup of patients ...

[1] = system: bombesin receptor subtype (BB3)
Description: as §1

[2] = system: gastrin-releasing peptide receptor (GRP-r, also known as BB2)
Description: as §1

Row | Substance | binding/affinity for BB1 (BB1 (Neuromedin B)) | binding/affinity for BB3 [1] | binding/affinity for BB2 [2]
1 | Bombesin [reference compound] | high affinity | high affinity | high affinity
2 | DOTA-PEG2-[D-Tyr^6 -β-Ala^11 -Thi^13 -Nle^14 ]BN(6-14) amide [BZH3, pan-Bombesin analog, unlabelled precursor] | binds | binds | binds
